Experimental data taken from patent US20230144824A1, “1H-PYRAZOLO[4,3-d]PYRIMIDINE COMPOUNDS AS TOLL-LIKE RECEPTOR 7 (TLR7) AGONISTS” (BRISTOL-MYERS SQUIBB COMPANY, priority 2020, published 2023).

Legend:
CD69 = test: Induction of CD69 in human whole blood; assay type: cell-based; settings: Homo sapiens, 17 h, 100% set to 1 uM of resiquimod, average where assay performed multiple times, read-out: hWB CD69 EC50
Protocol: The induction of Type I interferon (IFN) MX-1 genes and the B-cell activation marker CD69 are downstream events that occur upon activation of the TLR7 pathway. The following is a human whole blood assay that measures their induction in response to a TLR7 agonist.
Heparinized human whole blood was harvested from human subjects and treated with test TLR7 agonist compounds at 1 mM. The blood was diluted with RPMI 1640 media and Echo was used to predot 10 nL per well giving a final concentration of 1 uM (10 nL in 10 uL of blood). After mixing on a shaker for 30 sec, the plates were covered and placed in a 37° C. chamber for o/n=17 hrs. Fixing/lysis buffer was prepared (5×->1× in H2O, warm at 37° C.; Cat #BD 558049) and kept the perm buffer (on ice) for later use.
For surface markers staining (CD69): prepared surface Abs: 0.045 ul hCD14-FITC (ThermoFisher Cat #MHCD1401)+0.6 ul hCD19-ef450 (ThermoFisher Cat #48-0198-42)+1.5 ul hCD69-PE (cat #BD555531)+0.855 ul FACS buffer. Added 3 ul/well, spin1000 rpm for 1 min and mixed on shaker for 30 sec, put on ice for 30 mins. Stop stimulation after 30 minutes with 70 uL of prewarmed 1× fix/lysis buffer and use Feliex mate to resuspend (15 times, change tips for each plate) and incubate at 37 C for 10 minutes.
Centrifuge at 2000 rpm for 5 minutes aspirate with HCS plate washer, mix on shaker for 30 sec and then wash with 70 uL in dPBS and pelleted 2×s (2000 rpm for 5 min) and 50 ul wash in FACS buffer pelleted 1×s (2000 rpm for 5 min). Mix on shaker for 30 sec. For Intracellular markers staining (MX-1): Add 50 ul of BD Perm buffer III and mix on shaker for 30 sec. Incubate on ice for 30 minutes (in the dark). Wash with 50 uL of FACS buffer 2×(spin @2300 rpm×5 min after perm) followed by mixing on shaker for 30 sec. Resuspended in 20 ul of FACS buffer containing MX1 antibody ( )(4812)-Alexa 647: Novus Biologicals #NBP2-43704AF647) 20 ul FACS bf+0.8 ul hIgG+0.04 ul MX-1. Spin 1000 rpm for 1 min, mix on shaker for 30 se and the samples were incubated at RT in the dark for 45 minutes followed by washing 2×FACS buffer (spin @2300 rpm×5 min after perm). Resuspend 20 ul (35 uL total per well) of FACS buffer and cover with foil and place in 4° C. to read the following day. Plates were read on iQuePlus. The results were loaded into toolset and IC50 curves are generated in curve master. The y-axis 100% is set to 1 uM of resiquimod.

human TLR7 = biological target: T1, human TLR7 (Homo sapiens, UniProt Q9NYK1); test: Human TLR7 agonist activity assay (HEK-Blue TLR7 SEAP reporter); assay type: cell-based; settings: HEK-Blue TLR7 cells, 18 h treatment, average where assay performed multiple times, read-out: hTLR7 Agonism EC50
T1 construct: host or cells: HEK-Blue TLR7 cells (engineered human embryonic kidney cells)
T1 sequence (Q9NYK1 27-1049): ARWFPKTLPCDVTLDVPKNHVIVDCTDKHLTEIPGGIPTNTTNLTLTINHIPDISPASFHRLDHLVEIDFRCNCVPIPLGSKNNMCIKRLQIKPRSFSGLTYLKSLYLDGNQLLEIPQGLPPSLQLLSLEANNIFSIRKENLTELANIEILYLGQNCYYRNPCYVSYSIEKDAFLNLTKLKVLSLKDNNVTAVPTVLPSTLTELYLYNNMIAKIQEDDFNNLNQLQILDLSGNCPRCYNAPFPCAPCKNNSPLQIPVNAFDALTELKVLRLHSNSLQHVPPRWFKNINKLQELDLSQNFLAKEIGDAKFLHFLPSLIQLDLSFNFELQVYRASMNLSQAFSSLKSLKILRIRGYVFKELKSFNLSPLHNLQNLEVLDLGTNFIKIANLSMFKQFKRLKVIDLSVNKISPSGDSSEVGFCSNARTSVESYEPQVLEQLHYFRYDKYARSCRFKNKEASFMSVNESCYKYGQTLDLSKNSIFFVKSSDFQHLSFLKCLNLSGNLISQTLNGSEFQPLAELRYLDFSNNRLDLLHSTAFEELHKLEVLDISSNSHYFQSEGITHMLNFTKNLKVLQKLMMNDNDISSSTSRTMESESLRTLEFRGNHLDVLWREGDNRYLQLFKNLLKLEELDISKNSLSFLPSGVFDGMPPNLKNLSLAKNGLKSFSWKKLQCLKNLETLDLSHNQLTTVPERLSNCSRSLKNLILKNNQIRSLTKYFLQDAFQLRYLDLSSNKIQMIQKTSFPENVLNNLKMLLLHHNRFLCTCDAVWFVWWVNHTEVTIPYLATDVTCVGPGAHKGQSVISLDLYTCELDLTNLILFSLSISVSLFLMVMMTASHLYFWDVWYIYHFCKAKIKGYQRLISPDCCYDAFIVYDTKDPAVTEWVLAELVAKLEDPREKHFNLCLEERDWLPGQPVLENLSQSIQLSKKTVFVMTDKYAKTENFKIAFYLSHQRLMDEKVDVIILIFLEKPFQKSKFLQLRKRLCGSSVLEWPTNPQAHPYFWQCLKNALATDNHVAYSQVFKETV
Outline: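 HEK-Blue TLR7 cells (15,000/well) treated with compound for 18 h at 37 °C, 5% CO2. Secreted SEAP measured with Quanti-Blue, 30 min, OD 620 nm. EC50 taken as concentration giving half-maximal response between baseline and maximum.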

Row | Structure (SMILES) | EC50 (CD69) | EC50 (human TLR7)
1 | CCC[C@@H](CCO)Nc1nc(N)nc2cnn(Cc3ncc(C4CCN(C(C)C)CC4)cc3OC)c12 [Compound 126, (3S)-3-{[5-amino-1-({3-methoxy-5-[1-(propan-2-yl)piperidin-4-yl]pyridin-2-yl}methyl)-1H-pyrazolo[4,3-d]pyrimidin-7-yl]amino}hexan-1-ol] | 2 nM | 15.5 nM
2 | CCC[C@@H](CCO)Nc1nc(N)nc2cnn(Cc3ncc(C4CCN(C5CCOCC5)CC4)cc3OC)c12 [Compound 127, (3S)-3-{[5-amino-1-({3-methoxy-5-[1-(oxan-4-yl)piperidin-4-yl]pyridin-2-yl}methyl)-1H-pyrazolo[4,3-d]pyrimidin-7-yl]amino}hexan-1-ol] | 2.7 nM | 12.8 nM
3 | CCCCNc1nc(N)nc2cnn(Cc3ncc(C4CCN(C(=O)CN(C)C)CC4)cc3OC)c12 [Compound 128, 1-[4-(6-{[5-amino-7-(butylamino)-1H-pyrazolo[4,3-d]pyrimidin-1-yl]methyl}-5-methoxypyridin-3-yl)piperidin-1-yl]-2-(dimethylamino)ethan-1-one] | 3.5 nM | 48.4 nM
4 | CCCCNc1nc(N)nc2cnn(Cc3ncc(C4CCN(C5CCCC5)CC4)cc3OC)c12 [Compound 129, N7-butyl-1-{[5-(1-cyclopentylpiperidin-4-yl)-3-methoxypyridin-2-yl]methyl}-1H-pyrazolo[4,3-d]pyrimidine-5,7-diamine] | 7.6 nM | 27.3 nM
5 | CCCCNc1nc(N)nc2c(Cl)nn(Cc3ncc(C4CCN(C5CCCC5)CC4)cc3OC)c12 [Compound 131, N7-butyl-3-chloro-1-{[5-(1-cyclopentylpiperidin-4-yl)-3-methoxypyridin-2-yl]methyl}-1H-pyrazolo[4,3-d]pyrimidine-5,7-diamine] | 972 nM | 595 nM
6 | CCCCNc1nc(N)nc2cnn(Cc3ncc(C4CCN(C=O)CC4)cc3OC)c12 [Compound 132, 4-(6-{[5-amino-7-(butylamino)-1H-pyrazolo[4,3-d]pyrimidin-1-yl]methyl}-5-methoxypyridin-3-yl)piperidine-1-carbaldehyde] | 195 nM | 180 nM
7 | CCC[C@@H](CCO)Nc1nc(N)nc2cnn(Cc3ncc(C4CCN(C5COC5)CC4)cc3OC)c12 [Compound 133, (3S)-3-{[5-amino-1-({3-methoxy-5-[1-(oxetan-3-yl)piperidin-4-yl]pyridin-2-yl}methyl)-1H-pyrazolo[4,3-d]pyrimidin-7-yl]amino}hexan-1-ol] | 5.4 nM | 7.6 nM
8 | CCC[C@@H](CCO)Nc1nc(N)nc2cnn(Cc3ncc(C4CCN(C)CC4)cc3OC)c12 [Compound 134, (3S)-3-[(5-amino-1-{[3-methoxy-5-(1-methylpiperidin-4-yl)pyridin-2-yl]methyl}-1H-pyrazolo[4,3-d]pyrimidin-7-yl)amino]hexan-1-ol] | 2.6 nM | 14.1 nM
9 | CCC[C@@H](CCO)Nc1nc(N)nc2cnn(Cc3ncc(C4CCN(C(=O)CN(C)C)CC4)cc3OC)c12 [Compound 135, 1-(4-{6-[(5-amino-7-{[(3S)-1-hydroxyhexan-3-yl]amino}-1H-pyrazolo[4,3-d]pyrimidin-1-yl)methyl]-5-methoxypyridin-3-yl}piperidin-1-yl)-2-(dimethylamino)ethan-1-one] | 11.7 nM | 41.4 nM
10 | CCC[C@@H](CCO)Nc1nc(N)nc2cnn(Cc3ncc(C4CCN(C(=O)CCN(C)C)CC4)cc3OC)c12 [Compound 136, 1-(4-{6-[(5-amino-7-{[(3S)-1-hydroxyhexan-3-yl]amino}-1H-pyrazolo[4,3-d]pyrimidin-1-yl)methyl]-5-methoxypyridin-3-yl}piperidin-1-yl)-3-(dimethylamino)propan-1-one] | 42.3 nM | 197 nM

Continued, values first:

Row | EC50 (CD69) | EC50 (human TLR7) | Structure (SMILES)
11 | 118 nM | 357 nM | COc1cc(C2CCNCC2)cnc1Cn1ncc2nc(N)nc(NCc3cc(C)on3)c21 [Compound 137, 1-{[3-methoxy-5-(piperidin-4-yl)pyridin-2-yl]methyl}-N7-[(5-methyl-1,2-oxazol-3-yl)methyl]-1H-pyrazolo[4,3-d]pyrimidine-5,7-diamine]
12 | 5.6 nM | 26.7 nM | CCC[C@@H](CCO)Nc1nc(N)nc2cnn(Cc3ncc(C4CCN(C5CN(C)C5)CC4)cc3OC)c12 [Compound 138, (3S)-3-{[5-amino-1-({3-methoxy-5-[1-(1-methylazetidin-3-yl)piperidin-4-yl]pyridin-2-yl}methyl)-1H-pyrazolo[4,3-d]pyrimidin-7-yl]amino}hexan-1-ol]
13 | 1.1 nM | 8.1 nM | CCC[C@@H](CCO)Nc1nc(N)nc2cnn(Cc3ncc(C4CCN(C5CN(C(C)C)C5)CC4)cc3OC)c12 [Compound 139, (3S)-3-({5-amino-1-[(3-methoxy-5-{1-[1-(propan-2-yl)azetidin-3-yl]piperidin-4-yl}pyridin-2-yl)methyl]-1H-pyrazolo[4,3-d]pyrimidin-7-yl}amino)hexan-1-ol]
14 | 128 nM | 530 nM | COc1cc(C2CCN(C(=O)CCN(C)C)CC2)cnc1Cn1ncc2nc(N)nc(NCc3cc(C)on3)c21 [Compound 140, 1-(4-{6-[(5-amino-7-{[(5-methyl-1,2-oxazol-3-yl)methyl]amino}-1H-pyrazolo[4,3-d]pyrimidin-1-yl)methyl]-5-methoxypyridin-3-yl}piperidin-1-yl)-3-(dimethylamino)propan-1-one]
15 | 16.2 nM | 73.2 nM | COc1cc(C2CCN(C3CCOCC3)CC2)cnc1Cn1ncc2nc(N)nc(NCc3cc(C)on3)c21 [Compound 141, 1-({3-methoxy-5-[1-(oxan-4-yl)piperidin-4-yl]pyridin-2-yl}methyl)-N7-[(5-methyl-1,2-oxazol-3-yl)methyl]-1H-pyrazolo[4,3-d]pyrimidine-5,7-diamine]
16 | 5.6 nM | 43.3 nM | COc1cc(C2CCN(C(C)C)CC2)cnc1Cn1ncc2nc(N)nc(NCc3cc(C)on3)c21 [Compound 142, 1-({3-methoxy-5-[1-(propan-2-yl)piperidin-4-yl]pyridin-2-yl}methyl)-N7-[(5-methyl-1,2-oxazol-3-yl)methyl]-1H-pyrazolo[4,3-d]pyrimidine-5,7-diamine]
17 | 265 nM | 295 nM | COc1cc(C2CCN(C3CNC3)CC2)cnc1Cn1ncc2nc(N)nc(NCc3cc(C)on3)c21 [Compound 143, 1-({5-[1-(azetidin-3-yl)piperidin-4-yl]-3-methoxypyridin-2-yl}methyl)-N7-[(5-methyl-1,2-oxazol-3-yl)methyl]-1H-pyrazolo[4,3-d]pyrimidine-5,7-diamine]
